Reference: Sander's compilation of Henry's law constants (doi:10.1016/s1387-3806(02)00927-2)

test: Henry solubility constant Hcp at 298.15 K (mol/(m3 Pa)); conditions: reference: Karl et al. (2003)

| Structure (SMILES) | Henry solubility constant Hcp |
| --- | --- |
| CC/C=C/CCOC(C)=O [(E)-3-hexenyl ethanoate] | 0.033 |
| CC/C=C\CCOC(C)=O [(Z)-3-hexenyl ethanoate] | 0.031 |
| CCc1cccc(O)c1 [1-hydroxy-3-ethylbenzene] | 4.9 |
| CCC/C=C/C=O [(E)-2-hexenal] | 0.14 |
| CCCCCCOC(C)=O [hexyl ethanoate] | 0.015 |
| COc1nccnc1CC(C)C [2-isobutyl-3-methoxypyrazine] | 0.17 |

test: Henry solubility constant Hcp at 295 K (mol/(m3 Pa)); conditions: reference: Karl et al. (2003)

| Structure (SMILES) | Henry solubility constant Hcp at 295 K |
| --- | --- |
| CC1=CC=C(C(C)C)CC1 [1-methyl-4-(1-methylethyl)-1,3-cyclohexadiene] | 0.00045 |
| Cc1cc(C)cc(C)c1 [1,3,5-trimethylbenzene] | 0.002 |
| c1ccccc1 [benzene] | 0.0018 |
| Cc1ccccc1 [methylbenzene] | 0.0014 |
| CCCc1ccccc1 [propylbenzene] | 0.0015 |
| Cc1cccc(C)c1 [1,3-dimethylbenzene] | 0.0013 |

test: Henry solubility constant Hcp at 291 K (mol/(m3 Pa)); conditions: reference: Karl et al. (2003)

| Structure (SMILES) | Henry solubility constant Hcp at 291 K |
| --- | --- |
| C=CC(=C)C [2-methyl-1,3-butadiene] | 0.00029 |
